pIC50: −log10 of the molar value. Where two headings read alike, the source gives them in different places.
Key:
H1047R PIK3CA enzyme = H1047R PIK3CA enzyme (Homo sapiens, UniProt P42336, H1047R); assay: ADP-Glo Biochemical PIK3CA Kinase Assay
cells = conditions: Homo sapiens, MCF-10A, read-out: MCF10A I50
[1] = ADP-Glo biochemical PIK3CA kinase assay

Chain of H1047R PIK3CA enzyme (P42336 whole entry H1047R): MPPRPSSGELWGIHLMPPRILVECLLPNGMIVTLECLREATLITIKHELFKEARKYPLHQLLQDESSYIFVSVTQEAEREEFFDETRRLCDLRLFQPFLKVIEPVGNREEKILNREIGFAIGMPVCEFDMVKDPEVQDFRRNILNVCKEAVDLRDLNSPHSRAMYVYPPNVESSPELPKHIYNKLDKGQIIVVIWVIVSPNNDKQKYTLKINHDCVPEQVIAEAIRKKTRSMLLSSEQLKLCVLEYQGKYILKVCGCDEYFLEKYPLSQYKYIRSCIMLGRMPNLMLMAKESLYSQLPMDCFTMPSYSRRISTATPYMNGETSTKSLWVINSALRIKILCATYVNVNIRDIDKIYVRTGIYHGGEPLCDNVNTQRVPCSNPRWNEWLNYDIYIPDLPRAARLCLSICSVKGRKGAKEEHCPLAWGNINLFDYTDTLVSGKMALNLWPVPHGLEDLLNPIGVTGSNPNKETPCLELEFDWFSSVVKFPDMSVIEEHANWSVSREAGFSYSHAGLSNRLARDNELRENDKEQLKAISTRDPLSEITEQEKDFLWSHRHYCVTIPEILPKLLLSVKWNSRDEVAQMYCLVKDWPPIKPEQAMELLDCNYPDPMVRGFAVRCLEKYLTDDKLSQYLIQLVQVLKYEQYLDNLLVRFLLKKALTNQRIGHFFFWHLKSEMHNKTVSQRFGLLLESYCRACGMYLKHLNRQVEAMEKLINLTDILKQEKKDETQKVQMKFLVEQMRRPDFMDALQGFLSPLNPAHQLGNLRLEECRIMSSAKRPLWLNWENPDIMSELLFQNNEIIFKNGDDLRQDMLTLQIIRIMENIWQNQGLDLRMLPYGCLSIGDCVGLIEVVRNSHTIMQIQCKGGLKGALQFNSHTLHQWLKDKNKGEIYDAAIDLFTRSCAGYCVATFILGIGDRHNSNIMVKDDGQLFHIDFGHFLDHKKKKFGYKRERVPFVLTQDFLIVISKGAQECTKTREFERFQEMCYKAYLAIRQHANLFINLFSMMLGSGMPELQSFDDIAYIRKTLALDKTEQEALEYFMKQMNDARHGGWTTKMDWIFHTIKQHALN
Chain of H1047R PIK3CA enzyme (P27986 whole entry partner): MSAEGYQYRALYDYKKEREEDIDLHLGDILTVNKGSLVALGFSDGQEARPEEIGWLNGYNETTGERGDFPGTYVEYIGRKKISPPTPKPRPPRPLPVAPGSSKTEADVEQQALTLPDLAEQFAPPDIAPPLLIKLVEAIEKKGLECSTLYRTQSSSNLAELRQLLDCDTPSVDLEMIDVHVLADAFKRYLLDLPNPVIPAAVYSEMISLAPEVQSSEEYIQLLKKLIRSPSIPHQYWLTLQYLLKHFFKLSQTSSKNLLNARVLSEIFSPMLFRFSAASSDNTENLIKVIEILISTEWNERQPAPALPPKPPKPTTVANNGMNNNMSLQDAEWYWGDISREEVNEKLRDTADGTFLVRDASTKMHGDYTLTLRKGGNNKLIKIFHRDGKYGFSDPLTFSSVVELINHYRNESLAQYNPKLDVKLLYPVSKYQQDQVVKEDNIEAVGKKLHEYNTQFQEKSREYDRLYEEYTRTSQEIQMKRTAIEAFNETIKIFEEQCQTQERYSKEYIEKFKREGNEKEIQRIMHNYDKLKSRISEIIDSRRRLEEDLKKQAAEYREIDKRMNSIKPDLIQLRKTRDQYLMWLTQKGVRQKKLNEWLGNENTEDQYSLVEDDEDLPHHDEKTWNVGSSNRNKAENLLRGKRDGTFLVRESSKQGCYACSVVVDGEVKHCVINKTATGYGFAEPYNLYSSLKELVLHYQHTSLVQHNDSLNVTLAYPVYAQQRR

SMILES	pIC50 (H1047R PIK3CA enzyme)	pIC50 (cells)	pIC50 (H1047R PIK3CA enzyme; [1])
Cc1ccccc1Nc1ncc(CNS(=O)(=O)c2ccccc2)cc1NC(=O)c1cc(F)cc(C(F)(F)F)c1 [I-307]	6.30 to 7.00	5.30 to 6.00	
Cc1ccccc1Nc1cc(=O)[nH]cc1NC(=O)c1csc2ccccc12 [I-308]	5.00 to 6.00	4.00 to 4.44	
COC(=O)Cn1cc(NC(=O)c2csc3ccccc23)c(Nc2ccccc2C)cc1=O [I-309]	5.00 to 6.00	4.00 to 4.44	
Cc1ccccc1Nc1cc(=O)n(CC(=O)O)cc1NC(=O)c1csc2ccccc12 [I-310]	4.00 to 5.00	4.00 to 4.44	
Cc1ccccc1Nc1ncc(C(=O)NC2C[S+]([O-])C2)cc1NC(=O)c1csc2ccccc12 (centres unmarked) [I-311]	≥ 7.00	5.30 to 6.00	
CNC(=O)c1cnc(Nc2ccccc2C)c(NC(=O)c2cc(F)cc(OC(F)(F)F)c2)c1 [I-312]	5.00 to 6.00	4.00 to 4.44	
CNC(=O)c1cnc(Nc2ccccc2C)c(NC(=O)c2cc(F)cc(C#N)c2)c1 [I-313]	5.00 to 6.00	4.44 to 5.00	
O=C(NCCN1CCOCC1)c1cnc(N2CCOc3ccccc32)c(NC(=O)c2csc3ccccc23)c1 [I-316]	5.00 to 6.00	4.00 to 4.44	
C[C@]1(O)C[C@@H](NC(=O)c2cnc(N3CCOc4ccccc43)c(NC(=O)c3csc4ccccc34)c2)C1 [I-317]	6.30 to 7.00	5.00 to 5.30	
CC(=O)N1CC(NC(=O)c2cnc(N3CCOc4ccccc43)c(NC(=O)c3cc(F)cc(C(F)(F)F)c3)c2)C1 [I-329]	6.00 to 6.30	4.44 to 5.00	
Cc1ccccc1Nc1ncc(C(=O)NC2CS(=O)(=O)C2)cc1NC(=O)c1nsc2ccccc12 [I-330]	6.30 to 7.00	5.30 to 6.00	
Cc1ccccc1Nc1ncc(C(=O)NC2C[S+]([O-])C2)cc1NC(=O)c1nsc2ccccc12 (centres unmarked) [I-331]	6.30 to 7.00	5.30 to 6.00	
Cc1ccccc1Nc1ncc(C(=O)NC2CC(F)(F)C2)cc1NC(=O)c1nsc2ccccc12 [I-332]	6.30 to 7.00	5.00 to 5.30	
CNC(=O)c1cnc(Nc2ncccc2C)c(NC(=O)c2csc3ccccc23)c1 [I-335]	6.00 to 6.30	4.44 to 5.00	
CNC(=O)c1cnc(Nc2ccccc2C)c(NC(=O)c2csc3cnccc23)c1 [I-339]	6.00 to 6.30	5.30 to 6.00	
Cc1ccccc1Nc1cnc(C(=O)NC2CS(=O)(=O)C2)cc1NC(=O)c1cc(F)cc(C(F)(F)F)c1 [I-343]	5.00 to 6.00	> 6.00	
O=C(NC1CC(F)(F)C1)c1cnc(N2CCOc3ccccc32)c(NC(=O)c2csc3ccccc23)c1 [I-347]	6.30 to 7.00	5.30 to 6.00	
Cc1ccccc1Nc1cc2nnc(N)n2cc1NC(=O)c1csc2ccccc12 [I-350]	5.00 to 6.00	5.30 to 6.00	
Cc1ccccc1Nc1ncc(C(=O)NC2(C)CS(=O)(=O)C2)cc1NC(=O)c1csc2ccccc12 [I-361]	6.30 to 7.00	5.30 to 6.00	
CNC(=O)c1cnc(Nc2ccccc2Cl)c(NC(=O)c2csc3ccccc23)c1 [I-362]	≥ 7.00	4.44 to 5.00	

SMILES	pIC50 (H1047R PIK3CA enzyme)	pIC50 (cells)	pIC50 (H1047R PIK3CA enzyme; [1])
Cc1cc(Cn2cc(NC(=O)c3csc4ccccc34)c(Nc3ccccc3C)cc2=O)no1 [I-390]	6.30 to 7.00	4.44 to 5.00	
Cc1ccccc1Nc1ncc(C(=O)N[C@H]2C[C@@H](O)C2)cc1NC(=O)c1cc(F)cc(C(F)(F)F)c1 [I-395]	6.30 to 7.00	5.30 to 6.00	
O=C(Nc1cc(C(=O)N[C@H]2C[C@H](O)C2)cnc1Nc1ccccc1)c1cc(F)cc(C(F)(F)F)c1 [I-396]	6.30 to 7.00	5.30 to 6.00	
Cc1ccccc1Nc1ncc(C(=O)N[C@H]2C[C@@H](O)C2)cc1NC(=O)c1csc2ccccc12 [I-397]	≥ 7.00	5.00 to 5.30	
Cc1ccccc1Nc1ncc(C(=O)NC2CC(=O)N(Cc3ccccc3)C2)cc1NC(=O)c1csc2ccccc12 (centres unmarked) [I-398]		4.44 to 5.00	6.30 to 7.00
Cc1ccccc1Nc1ncc(C(=O)N[C@H]2C[C@H](O)C2)cc1NC(=O)c1csc2ccccc12 [I-399]		5.30 to 6.00	≥ 7.00
CNC(=O)c1cnc(Nc2ccccc2C)c(NC(=O)c2csc3c2CCOC3)c1 [I-402]		4.44 to 5.00	5.00 to 6.00
CNC(=O)c1cnc(Nc2ncccc2OC)c(NC(=O)c2csc3ccccc23)c1 [I-405]		4.00 to 4.44	4.00 to 5.00
CNC(=O)c1cnc(Nc2ccccc2C)c(NC(=O)c2coc3c(F)cc(F)cc23)c1 [I-406]		5.30 to 6.00	6.00 to 6.30
CNC(=O)c1cnc(Nc2ccccc2OC)c(NC(=O)c2csc3ccccc23)c1 [I-407]		4.00 to 4.44	5.00 to 6.00
CNC(=O)c1cnc(Nc2ccccc2C)c(NC(=O)c2coc3ccc(Cl)cc23)c1 [I-408]		5.30 to 6.00	6.00 to 6.30
CNC(=O)c1cnc(Nc2ccccc2C)c(NC(=O)c2csc3ccc(OC)cc23)c1 [I-409]		4.44 to 5.00	5.00 to 6.00
Cc1ccccc1Nc1ncc(CNC2CS(=O)(=O)C2)cc1NC(=O)c1cc(F)cc(C(F)(F)F)c1 [I-411]		4.44 to 5.00	5.00 to 6.00
CNC(=S)c1cnc(Nc2ccccc2C)c(NC(=O)c2csc3ccccc23)c1 [I-412]		4.44 to 5.00	6.30 to 7.00
Cc1ccccc1Nc1ncncc1NC(=O)c1csc2ccccc12 [I-413]		4.44 to 5.00	5.00 to 6.00
CNC(=O)c1cnc(Nc2ccccc2C)c(NC(=O)c2cc3c(Cl)ccnc3[nH]2)c1 [I-424]		4.00 to 4.44	4.00 to 5.00
Cc1ccccc1Nc1ncc(C(=O)NC2CC(=O)N(C)C2)cc1NC(=O)c1csc2ccccc12 (centres unmarked) [I-434]		5.00 to 5.30	6.30 to 7.00
Cc1ccccc1Nc1ncc(N2CC(S(C)(=O)=O)C2)cc1NC(=O)c1csc2ccccc12 [I-436]		4.44 to 5.00	6.00 to 6.30
CNC(=O)c1cnc(Nc2ccccc2C)c(NC(=O)c2cnn3cccc(Br)c23)c1 [I-468]		4.44 to 5.00	5.00 to 6.00
CNC(=O)c1cnc(Nc2ccccc2C)c(NC(=O)c2cc3c(Br)cccn3c2)c1 [I-486]		4.44 to 5.00	6.30 to 7.00

SMILES	pIC50 (H1047R PIK3CA enzyme)	pIC50 (cells)	pIC50 (H1047R PIK3CA enzyme; [1])
Cc1ccccc1Nc1ncc(C(=O)Nc2cccnn2)cc1NC(=O)c1csc2ccccc12 [I-496]		4.44 to 5.00	6.00 to 6.30
CNC(=O)c1cnc(Nc2ccccc2C)c(NC(=O)C2(c3ccccc3Cl)CC2)c1 [I-499]		4.44 to 5.00	≥ 7.00
Cc1ccccc1Nc1ncc(C(=O)N[C@@H]2c3ccccc3C[C@@H]2O)cc1NC(=O)c1csc2ccccc12 [I-506]		5.00 to 5.30	6.30 to 7.00
Cc1ccccc1Nc1ncc(C(=O)Nc2cn(C)cn2)cc1NC(=O)c1csc2ccccc12 [I-508]		4.44 to 5.00	6.30 to 7.00
CNC(=O)c1cnc(Nc2ccccc2C)c(NC(=O)c2cc(Br)cc3c2cnn3C)c1 [I-510]		4.44 to 5.00	6.30 to 7.00
COc1cnccc1CCNC(=O)c1cnc(Nc2ccccc2C)c(NC(=O)c2csc3ccccc23)c1 [I-515]		4.44 to 5.00	6.30 to 7.00
Cc1ccccc1Nc1ncc(C(=O)NCC(F)F)cc1NC(=O)c1csc2ccccc12 [I-519]		5.00 to 5.30	≥ 7.00
CNC(=O)c1cnc(Nc2ccccc2C)c(NC(=O)c2n[nH]c3ccc(Br)cc23)c1 [I-520]		4.44 to 5.00	≥ 7.00
Cc1ccccc1Nc1ncc(C(=O)NCc2cnccc2C(F)(F)F)cc1NC(=O)c1csc2ccccc12 [I-525]		4.44 to 5.00	≥ 7.00
COC[C@@H](C)NC(=O)c1cnc(Nc2ccccc2C)c(NC(=O)c2csc3ccccc23)c1 [I-526]		4.44 to 5.00	5.00 to 6.00
CNC(=O)c1cnc(Nc2ccccc2C)c(NC(=O)c2cc(C#N)cc(C(F)(F)F)c2)c1 [I-527]		5.00 to 5.30	6.30 to 7.00
CNC(=O)c1cnc(Nc2ccccc2C)c(NC(=O)c2cccc3[nH]c(C(F)(F)F)nc23)c1 [I-530]		4.44 to 5.00	6.30 to 7.00
Cc1ccccc1Nc1ncc(C(=O)NCc2cnn(C(C)C)c2)cc1NC(=O)c1csc2ccccc12 [I-532]		4.44 to 5.00	6.30 to 7.00
Cc1ccccc1Nc1ncc(C(=O)N2CC(C#N)C2)cc1NC(=O)c1csc2ccccc12 [I-533]		4.44 to 5.00	5.00 to 6.00
Cc1ccccc1Nc1ncc(C(=O)NCc2ccc3c(c2)OCCO3)cc1NC(=O)c1csc2ccccc12 [I-534]		4.44 to 5.00	≥ 7.00
CNC(=O)c1cnc(Nc2ccccc2C)c(NC(=O)c2cnc(OC)c(C(F)(F)F)c2)c1 [I-535]		4.44 to 5.00	5.00 to 6.00
COc1ccnc(CNC(=O)c2cnc(Nc3ccccc3C)c(NC(=O)c3csc4ccccc34)c2)c1 [I-538]		4.44 to 5.00	6.30 to 7.00
Cc1ccccc1Nc1ncc(C(=O)Nc2ccc3cccnc3c2)cc1NC(=O)c1csc2ccccc12 [I-539]		4.00 to 4.44	6.00 to 6.30
